Assay results published in patent publication EP1430019B1, “SPHINGOLIPIDS” (priority 2001, dated 2003).

How the values were obtained:
sphingomyelinases = assay: Sphingomyelinase inhibition, HL60 cell sonicate (Table 4, acid or neutral not stated); assay type: biochemical, Human
Description: N-hexyl-sphingosyl phosphorylcholine (AD-2144) was tested as to its inhibitory effect on sphingomyelinases, acidic (i.e., with an optimum at about pH 5) or neutral (with a pH optimum at about pH 7.4). For this purpose a sonicate of HL60 leukemic cells was used as enzyme source. Increasing concentrations of AD-2144 were dispersed by a mixture of fluorescent and non-fluorescent sphingomyelin (Bodipy-C12-SPM:SPM, 1:19), buffer and 0.25% Triton-X100 in a volume of 100 µl. For acid sphingomyelinase 0.4M acetate buffer pH 5.0 was used; for neutral sphingomyelinase 0.2M Tris buffer, pH 7.4 and 5 mM magnesium chloride. To 100 µl of these dispersions, 100 µl of HL60 cells sonicate were added. Incubation was 2-3 hours after which 0.8 ml of chloroform:methanol 2:1 were added, stirred and the lower, chloroform phase was collected, dried and applied to a thin layer chromatography plate. The plate was developed in a mixture of chloroform and methanol, 87:3. The fluorescence of the product, i.e., Bodipy-C12-ceramide, was quantified.
For acid sphingomyelinase as well as for neutral spingomyelinase: at 300 µM of AD-2144 there was a reduction of over 60% in Bodipy-C12-ceramide. […]

Swiss mice = assay: In vivo toxicity, mice viability
Description: Six groups, each of 5 Swiss mice were injected, intra-peritoneally with solutions of AD-2646, at varying concentrations, each in a volume of 100 µl. Injections were performed on days 1, 2, 3, 4, and mice viability was tested (Table 5).

TSU-PR1 cells = assay: TSU-PR1 cytotoxicity by protein content; assay type: cell-based; details: Homo sapiens, 48 h; TSU-PR1, two days, Fig. 2
Description: In order to evaluate the generality of AD-2646 compound effect on cell viability, other cell lines were subjected to the same procedures disclosed herein above.
TSU-PR1 cells (prostate cancer cells) were incubated for two days with increasing concentrations of AD-2646. The protein content measurements shown in Fig. 2 indicate that the cells were killed with an IC50 of 6-7 µM.

HL60 cells [1] = assay: HL60 cell viability by total protein content (Bradford); assay type: cell-based, Human; details: for IC50: HL60, 2 days
Description: The effect of the AD-2646 compound on cell viability was further supported when the total protein content was quantified. HL60 cells were incubated as described above, with different concentrations of AD-2646. After 2 days the cells were collected, washed twice with saline, dispersed and following a short pulsing with a probe-sonicator their protein content was quantified by the Bradford procedure. Similarly to the viable cell counting results, the protein measurements indicated an IC50 value of 5 µM.
To analyze whether the AD-2646 compound may mediate its effect on cell viability and on total protein content, in cooperation with other compounds, the cooperative effect of this compound and Taxol was next evaluated. HL60 cells were incubated for two days with 4 µM AD2646 in the presence or absence of 2 ng Taxol. […]
(§1) The effect of different compounds of the invention on cell viability was next evaluated by measuring total cell protein quantity. Different cell lines were incubated for two days in the presence of increasing concentrations of the different compounds of the present invention.

HL60 cells [2] = assay: HL60 cell viability, viable cell count with trypan blue; assay type: cell-based, Human
Description: The effect of AD-2646 on cell viability was analyzed by measuring cell mortality (viable cell count) and/or total protein quantity. HL60 cells grown in RMPI plus 10% fetal calf serum, were incubated with increasing concentrations of (2R,3R)-2-(N-tetradecylamine)-1-(4-nitrophenyl)-1,3-propanediol (AD-2646) in 6- or 24-well dishes. […] After 2 days the cells were collected, washed twice with saline, treated with trypan blue and the number of living (non-blue) cells was counted. Fig. 1 indicates an IC50 value of 5 µM.
Kinetic of the observed killing effect of the AD-2646 compound was next examined. HL60 cells were incubated with 40 µM of AD-2646 for 1, 3, 5 and 7 hours. Already after 1 hour a reduction of 60% of the viable cell number was observed.

Bod3-SPM [3] = assay: Sphingolipid metabolism from Bodipy-C3-ceramide in HL60 cells: Bod3-SPM; assay type: cell-based, Human; details: for IC50: Homo sapiens, HL-60, 3 h, HL60, 3 hours, 2.5 µM Bodipy-C3-ceramide, cell + medium, read-out: Bod 3-SPM (IC50 for reduction); for inhibition of Bod3-SPM (fluorescent image): HL60, 10 µM
Description: (§2) In order to examine the effect of the different compounds on sphingolipids metabolism, different cell lines were incubated with increasing concentrations of different compounds of the invention in the presence of 2.5 µM Bodipy-C3-ceramide that was added to the culture medium as a solution in dimethylsulfoxide (not exceeding 0.1% DMSO of the final volium). After 3 hours, cells and medium were collected and centrifuged. Cells were next extracted with chloroform- methanol containing 2% acetic acid 1:1 (by volume) and the medium was shaken with an equal volume of chloroform-methanol, 1:1 (by volume). The phases were separated by centrifugation and the lower chloroform phase was collected. The solvents were evaporated and applied to thin layer chromatography silica gel plates (Whatman 4865-821) with a concentrating zone.
(§3) Plates were developed as follows: For medium: in chloroform-methanol-H2O, 75:25:4 by volume. For cells: plates were first developed with chloroform-methanol, 9:1, then dried and re-run in chloroform-methanol: H2O, 65:35:4.
(§4) Standards of Bodipy-C3-ceramide: Bodipy-C3-glucosylceramide (Bod3-GC) and Bodipy C3 sphingomyelin (Bod3-SPM) were used as markers. The fluorescence of the respective Bod3-SPM and Bod3-GC spots was quantified using a Fuji FLA-2000 scanner.

Bod3-SPM [4] = assay: Sphingolipid metabolism from Bodipy-C3-ceramide in TSU-PR1 cells: Bod3-SPM; assay type: cell-based; details: Homo sapiens; TSU-PR1, 3 hours, Fig. 5; read-out: reduction of Bod3-SPM, IC50
Description: as §2, §3, §4
The effect of AD-2646 on sphingolipid metabolism was further examined using TSU-PR1 prostate cancer cells. […]

[5] = test system: Leishmania major promastigote; assay: Leishmania major promastigote cell count; assay type: cell-based; details: promastigotes, 3 h, 27°C, cell counting; read-out: IC50 for cell reduction
Description: 2 × 10^5 Leishmania major promastigote cell, each in a volume of 100 µl were added to 100 µl medium (RPMI 1640 culture medium complemented with 20% FCS, 1% penicillin and 1% streptomycin) in 96-well plates containing zero and increasing concentrations of (2S,3R)-2-N-aminohexyl-1-(4-N-hexylamiuophenyl)-1,3-propanediol (AD-2663) in 2-fold serial dilution. After incubation period (3 h, 27°C) the number of cells was determined by counting on aliquot from each well on a Neulander cell counter under a microscope. The IC50 for cell reduction was 7 µM.

MCF7-NCi = assay: Cell viability by total cell protein quantity, MCF7-NCi; assay type: cell-based; details: Homo sapiens, 48 h, two days
Description: as §1

U937 cells = assay: Apoptosis in U937 cells, DEVDase/caspase 3 activity kit; assay type: cell-based; details: Homo sapiens, U-937; U937, 5 µM, 24 hours; read-out: number of apoptotic cells relative to control cells
Description: Myeloid, leukemic U937 cells were incubated for 24 hours in the absence or in the presence of 5 µM AD-2672 and AD-2665. Cells were then collected and the percent of apoptotic cells was determined using a kit quantifying the DEVDase, caspase 3 activity. The number of apoptotic cells incubated with AD-2672 exceeded 6-fold those in the control cells. Cells incubated with AD-2665 exceeded 2.8-fold those in the control cells.

Bod 3-GC = assay: Sphingolipid metabolism from Bodipy-C3-ceramide in MCF-NCi cells: Bod3-GC; assay type: cell-based; details: Homo sapiens, 3 hours, 2.5 µM Bodipy-C3-ceramide, read-out: Bod 3-GC (IC50 for reduction)
Description: as §2, §3, §4

MCF7-AdrR = assay: Cell viability by total cell protein quantity, MCF7-AdrR; assay type: cell-based; details: Homo sapiens, 48 h, two days
Description: as §1

Bod 3-SPM = assay: Sphingolipid metabolism from Bodipy-C3-ceramide in MCF-NCi cells: Bod3-SPM; assay type: cell-based; details: Homo sapiens, 3 hours, 2.5 µM Bodipy-C3-ceramide, read-out: Bod 3-SPM (IC50 for reduction)
Description: as §2, §3, §4

Bod3-GC = molecular target: T1, Bod3-GC (Homo sapiens, UniProt Q16739); assay: Sphingolipid metabolism from Bodipy-C3-ceramide in HL60 cells: Bod3-GC; assay type: cell-based; details: HL60, 10 µM, Fig. 6
T1 sequence (Q16739 1-394): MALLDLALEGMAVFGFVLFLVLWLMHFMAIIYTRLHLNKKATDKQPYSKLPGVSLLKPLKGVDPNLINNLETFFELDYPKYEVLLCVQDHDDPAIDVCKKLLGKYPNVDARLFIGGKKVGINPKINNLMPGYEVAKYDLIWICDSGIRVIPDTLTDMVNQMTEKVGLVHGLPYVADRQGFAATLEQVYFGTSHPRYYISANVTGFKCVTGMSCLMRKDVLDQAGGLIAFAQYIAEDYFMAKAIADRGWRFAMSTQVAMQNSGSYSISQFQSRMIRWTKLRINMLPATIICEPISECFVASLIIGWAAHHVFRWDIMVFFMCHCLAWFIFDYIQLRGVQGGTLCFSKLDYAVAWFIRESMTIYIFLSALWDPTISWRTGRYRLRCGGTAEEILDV
Description: as §2, §3, §4

CCCCCCCCCCCCC/C=C/[C@H](O)[C@@H](COP(=O)([O-])OCC[N+](C)(C)C)NCCCCCC [AD-2144, N-hexyl-sphingosyl phosphorylcholine]
% reduction in Bodipy-C12-ceramide (sphingomyelinases; AD-2144 concentration 50µl): 30% | % reduction in Bodipy-C12-ceramide (sphingomyelinases; AD-2144 concentration 100µl): 44% | % reduction in Bodipy-C12-ceramide (sphingomyelinases; AD-2144 concentration 150µl): 65% | % reduction in Bodipy-C12-ceramide (sphingomyelinases; AD-2144 concentration 300µl): 82%

CCCCCCCCCCCCCCN[C@H](CO)[C@H](O)c1ccc([N+](=O)[O-])cc1 [AD-2646, (2R, 3R)-2-(N-tetradecylamine)-1-(4-nitrophenyl)-1,3-propanediol]
No. of mice in each day (Swiss mice; 1mg/kg intra-peritoneally on days 1-4, group of 5, day 1): 5 | No. of mice in each day (Swiss mice; 1mg/kg intra-peritoneally on days 1-4, group of 5, day 2): 5 | No. of mice in each day (Swiss mice; 1mg/kg intra-peritoneally on days 1-4, group of 5, day 3): 5 | No. of mice in each day (Swiss mice; 1mg/kg intra-peritoneally on days 1-4, group of 5, day 4): 5 | No. of mice in each day (Swiss mice; 1mg/kg intra-peritoneally on days 1-4, group of 5, day 5): 5 | No. of mice in each day (Swiss mice; 1mg/kg intra-peritoneally on days 1-4, group of 5, day 6): 5 | No. of mice in each day (Swiss mice; 5mg/kg intra-peritoneally on days 1-4, group of 5, day 1): 5 | No. of mice in each day (Swiss mice; 5mg/kg intra-peritoneally on days 1-4, group of 5, day 2): 5 | No. of mice in each day (Swiss mice; 5mg/kg intra-peritoneally on days 1-4, group of 5, day 3): 5 | No. of mice in each day (Swiss mice; 5mg/kg intra-peritoneally on days 1-4, group of 5, day 4): 5 | No. of mice in each day (Swiss mice; 5mg/kg intra-peritoneally on days 1-4, group of 5, day 5): 5 | No. of mice in each day (Swiss mice; 5mg/kg intra-peritoneally on days 1-4, group of 5, day 6): 5 | IC50 (TSU-PR1 cells): 6 to 7 µM | Protein content (HL60 cells [1]; HL60, two days, 4 µM AD2646 alone): 174 µg | IC50 (HL60 cells [1]; Homo sapiens, HL-60, 48 h): 5 µM | reduction of the viable cell number (HL60 cells [2]; HL60, 40 µM, after 1 hour): 60% | IC50 (HL60 cells [2]; Homo sapiens, HL-60, 48 h, HL60, 2 days, trypan blue, Fig. 1): 5 µM | IC50 (Bod3-SPM [3]): ~6 µM | IC50 (Bod3-SPM [4]): ~5 µM

CCCCCCNc1ccc([C@@H](O)[C@H](CO)NCCCCCC)cc1 [AD-2663, (2S,3R)-2-N-aminohexyl-1-(4-N-hexylamiuophenyl)-1,3-propanediol]
IC50 [5]: 7 µM

CCCCCCNc1ccc([C@@H](O)[C@@H](CO)NCCCCCC)cc1 [AD-2665, (2R,3R)-2-(N-hexylamine)-1-(4-N-hexylaminophenyl)-1,3-propanediol]
IC50 (MCF7-NCi): 3 µM | fold induction at 5 µM (U937 cells): 2.8 | IC50 (Bod 3-GC): 10 µM | IC50 (MCF7-AdrR): 7 µM | IC50 (Bod 3-SPM): 7 µM | IC50 (Bod3-SPM [3]): 4 µM

CCCCCCCCCCCCCCN[C@H](CO)[C@H](O)c1ccc(N)cc1 [AD-2672, (2R,3R)-2-(N-tetradecylamine)-1-(4-aminophenyl)-1,3-propanediol]
fold induction at 5 µM (U937 cells): 6 | level of Bod3-SPM (fluorescent image) (Bod3-SPM [3]; HL60, 5 and 10 µM, Fig. 6): strongly reduces the level of Bod3-SPM | IC50 (Bod3-SPM [3]): 4 µM

CCCCCCCCCCCC(=O)Nc1ccc([C@@H](O)[C@H](N)CO)cc1 [AD-2673]
reduction of the level of Bod3-GC (fluorescent image) (Bod3-GC): much stronger reduction of the level of Bod3-GC | IC50 (HL60 cells [1]; Homo sapiens, HL-60, 48 h): 7.5 µM | inhibition of Bod3-SPM (fluorescent image) (Bod3-SPM [3]; Fig. 6): low inhibition of Bod3-SPM | IC50 (Bod3-SPM [3]): 6 µM

CCCCCCCCCCCC(=O)Nc1ccc([C@H](O)[C@@H](N)CO)cc1 [AD-2674]
reduction of the level of Bod3-GC (fluorescent image) (Bod3-GC): much stronger reduction of the level of Bod3-GC | inhibition of Bod3-SPM (fluorescent image) (Bod3-SPM [3]; Fig. 6): low inhibition of Bod3-SPM

(2R, 3S)-2-BOC-amino-1-[4-N-(dodecanoyl-12-N-BOC-amine)-phenyl)-1,3-propanediol [AD-2620]
IC50 (HL60 cells [1]): 3 µM
